According to patent US8895695B2, “Template-fixed beta-hairpin peptidomimetics with CXCR4 antagonizing activity” (priority 2003, dated 2014):
Numbered stars: 1 amine (or outer) side, 2 acyl side, 3 side chain; on linkers, the order of the positions; unused ones are H or OH. Bridge positions count the residues as written; N and C are the ends. Square brackets hold non-standard residues; d marks the D form. Peptide text beside a SMILES is read from it. X1 = CC(C)CN(CCC[C@H](N[*:1])C(=O)[*:2])CC(C)C; 2Nal = N[C@@H](Cc1ccc2ccccc2c1)C(=O)O; Cit = NC(=O)NCCC[C@H](N)C(=O)O; Dab = NCC[C@H](N)C(=O)O

Tests used:
[1] = tested on: human red blood cells (hRBC); experiment: Hemolysis; assay type: cell-based
Procedure, shortened: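 Washed fresh human erythrocytes (20% v/v, about 0.9×10^9 cells/ml final) incubated with peptide at 100 μM for 1 h at 37° C. Supernatant diluted 20-fold and OD540 read. Percent hemolysis relative to 0.1% Triton X-100 in H2O (100%), with PBS alone as 0%.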

in vitro [2] = settings: human; for CC50 at 48 h: HELA cells (Acc57)
CXCR4 [3] = target: T1, CXCR4 (Homo sapiens, UniProt P61073); experiment: Ca2+-assay method 1: CXCR4-antagonizing activity; assay type: cell-based; design: expressed in transfected cells; settings: method 1 (Ex. 1-53), CXCR4 transfected pre-B cells, Fura-2; read-out: IC50 (nM) Ca^2+ assay
T1 sequence (P61073 whole entry): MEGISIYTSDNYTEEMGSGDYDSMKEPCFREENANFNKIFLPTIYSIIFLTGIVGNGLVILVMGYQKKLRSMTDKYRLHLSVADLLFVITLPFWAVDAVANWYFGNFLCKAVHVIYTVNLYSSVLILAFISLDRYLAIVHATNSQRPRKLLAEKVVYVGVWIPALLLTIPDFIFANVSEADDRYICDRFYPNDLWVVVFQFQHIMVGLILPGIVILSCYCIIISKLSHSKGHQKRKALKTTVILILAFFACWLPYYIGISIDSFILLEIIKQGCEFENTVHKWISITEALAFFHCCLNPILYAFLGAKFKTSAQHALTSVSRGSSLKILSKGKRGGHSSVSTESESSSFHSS
Description: 2.2. Ca^2+-Assay: CXCR4-Antagonizing Activity of the Peptides.
The cells were washed free from Fura-2-AM with a platelet centrifuge and resuspended in 800 μl MSB containing 5 mM D-Glucose. The peptides to be administered were diluted to a 100 fold end concentration in MSB/0.2% PPL, and 8 μl were injected. […] Measurements were done under continuous stirring at 37° C. The signal intension was calibrated with 3 mM CaCl2/[…] lonomycin (maximal fura-2-acetoxymethylester saturation) and 10 μM MnCl2 (minimal Fura-2-acetoxymethylester saturation) and [Ca^2+]i-changes are presented in % fora-2-acetoxymethylester saturation. The rate of [Ca^2+]i-changes was calculated on the basis of the initial [Ca^2+]i-changes and plotted in dependence of chemokine concentration to obtain a sigmoidal curve and to determine the IC50 values.
Osmolarity: 310 mOsm adjusted with NaOH or HCl, adjusted with H2O or PBS.
MSB plus: 5 mM D-glucose in MSB (50 mg/50 mL).
Fura 2-acetoxymethylester: 1 mM stock solution in dimethylsulfoxide.

in vitro [4] = assay type: in vitro ADME; settings: plasma
Description: 405 μl of plasma/albumin solution were placed in a polypropylene (PP) tube and spiked with 45 μl of compound from a 100 μM solution B, derived from 135 μl of PBS and 15 μl of 1 mM peptide in PBS, pH 7.4. 150 μl aliquots were transferred into individual wells of the 10 kDa filter plate (Millipore MAPPB 1010 Biomax membrane). For “0 minutes controls”: 270 μl of PBS were placed in a PP tube and 30 μl of stock solution B was added and vortexed. 150 μl of control solution was placed into one well of the filter plate and serves as “filtered control”.
Further 150 μl of control solution were placed directly into a receiver well (reserved for filtrate) and serve as “not-filtered control”. The entire plate including evaporation lid was incubated for 60 min at 37° C. Plasma samples (rat plasma: Harlan Sera lab UK, human plasma: Blutspendezentrum Zürich) were centrifuged at least for 2 h at 4300 rpm (3500 g) and 15° C. in order to yield 100 μl filtrate. For “serum albumin”-samples (freshly prepared human albumin: Sigma A-4327, rat albumin: Sigma A-6272, all at 40 mg/ml concentration in PBS) approximately 1 hour of centrifugation is sufficient. The filtrates in the receiver PP plate were analysed by LC/MS as followes: Column: Jupiter C18 (Phenomenex), mobile phases: (A) 0.1% formic acid in water and (B) acetonitrile, gradient: 5%-100% (B) in 2 minutes, electrospray ionization, MRM detection (triple quadrupole). The peak areas were determined and triplicate values are averaged. The binding is expressed in percent of the (filtered and not-filtered time point 0 min) control 1 and 2 by: 100−(100*T60/T0). The average from these values is then calculated (see ref. 9 below).

CXCR4 [5] = target: T1, CXCR4; experiment: Ca2+-assay method 2 (Flexstation, SDF-1 induced calcium mobilization); assay type: cell-based; design: expressed in transfected cells; host or cells: mouse pre-B cell line 300-19; settings: method 2 (Ex. 54-160), mouse pre-B cell line 300-19 with human CXCR4, 10 nM SDF-1; read-out: IC50 (nM) Ca^2+ assay
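For CC50 in this document: MTT reduction read as absorbance at 595 nm, blank-corrected and expressed as percent growth relative to the time-zero cell reading, triplicate wells per concentration.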
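For GI50 in this document: MTT reduction read as absorbance at 595 nm, blank-corrected and expressed as percent growth relative to the time-zero cell reading, triplicate wells per concentration.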

Compound	Hemolysis at 100 μM [1]	CC50 at 48 h (in vitro [2])	IC50 (CXCR4 [3])	half-life at 10 μM (in vitro [4]; human)	half-life at 10 μM (in vitro [4]; rat)	GI50 at 48 h (in vitro [2])	IC50 (CXCR4 [5])
CC(C)[C@@H]1NC(=O)[C@H](CCCNC(N)=O)NC(=O)[C@H](CCCNC(=N)N)NC(=O)[C@H](Cc2ccc(O)cc2)NC(=O)[C@@H]2CCCN2C(=O)[C@H]2CCCN2C(=O)[C@H](CCCCN)NC(=O)[C@H](CCCNC(N)=O)NC(=O)[C@H](Cc2ccc(O)cc2)NC(=O)[C@H](Cc2ccccc2)NC(=O)[C@H](Cc2ccc3ccccc3c2)NC(=O)[C@H](CCCNC(=N)N)NC(=O)[C@@H](CCCNC(=N)N)NC(=O)[C@H](CCCNC(=N)N)NC1=O [Ex. 1] (cyclo(YR[Cit]VR[dR]R[2Nal]FY[Cit]K[dP]P))	1.6%	82000 nM	2280 nM	–	–	–	–
CC(C)[C@@H]1NC(=O)[C@H](CCCNC(N)=O)NC(=O)[C@H](CCCNC(=N)N)NC(=O)[C@H](Cc2ccc(O)cc2)NC(=O)[C@@H]2CCCN2C(=O)[C@H]2CCCN2C(=O)[C@H](CCCCN)NC(=O)[C@H](CCCNC(N)=O)NC(=O)[C@H](Cc2ccc(O)cc2)NC(=O)[C@H](C(C)C)NC(=O)[C@H](Cc2ccc3ccccc3c2)NC(=O)[C@H](CCCNC(=N)N)NC(=O)[C@H](CCCNC(=N)N)NC(=O)[C@H](CCCNC(=N)N)NC1=O [Ex. 6] (cyclo(YR[Cit]VRRR[2Nal]VY[Cit]K[dP]P))	0.6%	103000 nM	1930 nM	–	–	–	–
N=C(N)NCCC[C@@H]1NC(=O)[C@@H]2CSSC[C@H](NC(=O)[C@H](Cc3ccc4ccccc4c3)NC(=O)[C@H](CCCNC(=N)N)NC(=O)[C@H](CCCNC(=N)N)NC(=O)[C@H]3CCCN3C(=O)CNC1=O)C(=O)N[C@@H](Cc1ccc(O)cc1)C(=O)N[C@@H](CCC(N)=O)C(=O)N[C@@H](CCCCN)C(=O)N1CCC[C@@H]1C(=O)N1CCC[C@H]1C(=O)N[C@@H](Cc1ccc(O)cc1)C(=O)N[C@@H](CCCNC(=N)N)C(=O)N[C@@H](CCC(=O)O)C(=O)N2 [Ex. 75] (cyclo(YRECRG[dP]RR[2Nal]CYQK[dP]P); disulfide 4-11)	0%	–	–	3.13 h	2.37 h	> 100000 nM	3.5 nM
N=C(N)NCCC[C@@H]1NC(=O)[C@@H]2CSSC[C@H](NC(=O)[C@H](Cc3ccc4ccccc4c3)NC(=O)[C@H](CCCNC(=N)N)NC(=O)[C@H](CCCNC(=N)N)NC(=O)[C@H]3CCCN3C(=O)CNC1=O)C(=O)N[C@@H](Cc1ccc(O)cc1)C(=O)N[C@@H](CCC(N)=O)C(=O)N[C@@H](CC(=O)O)C(=O)N1CCC[C@@H]1C(=O)N1CCC[C@H]1C(=O)N[C@@H](Cc1ccc(O)cc1)C(=O)N[C@@H](CCCNC(=N)N)C(=O)N[C@@H](CCCNC(N)=O)C(=O)N2 [Ex. 85] (cyclo(YR[Cit]CRG[dP]RR[2Nal]CYQD[dP]P); disulfide 4-11)	0%	–	–	2.77 h	> 5 h	94000 nM	2.7 nM
N=C(N)NCCC[C@@H]1NC(=O)[C@H](CCCNC(=N)N)NC(=O)[C@H]2CCCN2C(=O)CNC(=O)[C@H](CO)NC(=O)[C@@H]2CSSC[C@H](NC(=O)[C@H](Cc3ccc4ccccc4c3)NC1=O)C(=O)N[C@@H](Cc1ccc(O)cc1)C(=O)N[C@@H](CCC(N)=O)C(=O)N[C@@H](CCCCN)C(=O)N1CCC[C@@H]1C(=O)N1CCC[C@H]1C(=O)N[C@@H](Cc1ccc(O)cc1)C(=O)N[C@@H](CCCNC(=N)N)C(=O)N[C@@H](CCCNC(N)=O)C(=O)N2 [Ex. 101] (cyclo(YR[Cit]CSG[dP]RR[2Nal]CYQK[dP]P); disulfide 4-11)	0.6%	–	–	> 5 h	4.12 h	74000 nM	1.28 nM
N=C(N)NCCC[C@@H]1NC(=O)[C@@H]2CSSC[C@H](NC(=O)[C@H](Cc3c[nH]c4ccccc34)NC(=O)[C@H](CCCNC(=N)N)NC(=O)[C@H](CCCNC(=N)N)NC(=O)[C@H]3CCCN3C(=O)CNC1=O)C(=O)N[C@@H](Cc1ccc(O)cc1)C(=O)N[C@@H](CCCNC(N)=O)C(=O)N[C@@H](CC(=O)O)C(=O)N1CCC[C@@H]1C(=O)N1CCC[C@H]1C(=O)N[C@@H](Cc1ccc(O)cc1)C(=O)N[C@@H](CCCNC(=N)N)C(=O)N[C@@H](CO)C(=O)N2 [Ex. 102] (cyclo(YRSCRG[dP]RRWCY[Cit]D[dP]P); disulfide 4-11)	0.5%	–	–	4.25 h	4.08 h	33000 nM	8 nM
C[C@@H](O)[C@@H]1NC(=O)[C@H](CCCNC(=N)N)NC(=O)[C@H](Cc2ccc(O)cc2)NC(=O)[C@@H]2CCCN2C(=O)[C@H]2CCCN2C(=O)[C@H](CCCCN)NC(=O)[C@H](CCC(N)=O)NC(=O)[C@H](Cc2ccc(O)cc2)NC(=O)[C@@H]2CSSC[C@H](NC1=O)C(=O)N[C@@H](CCCNC(=N)N)C(=O)NCC(=O)N1CCC[C@@H]1C(=O)N[C@@H](CCN)C(=O)N[C@@H](CCCNC(=N)N)C(=O)N[C@@H](Cc1c[nH]c3ccccc13)C(=O)N2 [Ex. 110] (cyclo(YRTCRG[dP][Dab]RWCYQK[dP]P); disulfide 4-11)	0%	–	–	1.92 h	4.32 h	48000 nM	1.7 nM
CC(C)CN(CCC[C@@H]1NC(=O)[C@H]2CCCN2C(=O)CNC(=O)[C@H](CCCNC(=N)N)NC(=O)[C@@H]2CSSC[C@H](NC(=O)[C@H](Cc3ccc4ccccc4c3)NC(=O)[C@H](CCCNC(=N)N)NC1=O)C(=O)N[C@@H](Cc1ccc(O)cc1)C(=O)N[C@@H](CCCNC(N)=O)C(=O)N[C@@H](CCCCN)C(=O)N1CCC[C@@H]1C(=O)N1CCC[C@H]1C(=O)N[C@@H](Cc1ccc(O)cc1)C(=O)N[C@@H](CCCNC(=N)N)C(=O)N[C@@H](CCCNC(N)=O)C(=O)N2)CC(C)C [Ex. 124] (cyclo(YR[Cit]CRG[dP][X1]R[2Nal]CY[Cit]K[dP]P); disulfide 4-11)	0%	–	–	> 5 h	> 5 h	21000 nM	5.9 nM
N=C(N)NCCC[C@@H]1NC(=O)[C@H](CO)NC(=O)[C@H](CCCNC(N)=O)NC(=O)[C@H](CCCNC(=N)N)NC(=O)[C@H](Cc2ccc(O)cc2)NC(=O)[C@@H]2CCCN2C(=O)[C@H]2CCCN2C(=O)[C@H](CCCCN)NC(=O)[C@H](CCCNC(N)=O)NC(=O)[C@H](Cc2ccc(O)cc2)NC(=O)[C@H](CC(N)=O)NC(=O)[C@H](Cc2c[nH]c3ccccc23)NC(=O)[C@H](CCCNC(=N)N)NC(=O)[C@H](CCCNC(=N)N)NC(=O)[C@H]2CCCN2C(=O)CNC1=O [Ex. 151] (cyclo(YR[Cit]SRG[dP]RRWNY[Cit]K[dP]P))	0.9%	–	–	1.48 h	1.18 h	83000 nM	4.2 nM
N=C(N)NCCC[C@@H]1NC(=O)[C@@H]2CCNC(=O)CC[C@H](NC(=O)[C@H](Cc3c[nH]c4ccccc34)NC(=O)[C@H](CCCNC(=N)N)NC(=O)[C@H](CCCNC(=N)N)NC(=O)[C@H]3CCCN3C(=O)CNC1=O)C(=O)N[C@@H](Cc1ccc(O)cc1)C(=O)N[C@@H](CCCNC(N)=O)C(=O)N[C@@H](CCCCN)C(=O)N1CCC[C@@H]1C(=O)N1CCC[C@H]1C(=O)N[C@@H](Cc1ccc(O)cc1)C(=O)N[C@@H](CCCNC(=N)N)C(=O)N[C@@H](CCCNC(N)=O)C(=O)N2 [Ex. 152] (cyclo(YR[Cit][Dab]RG[dP]RRWEY[Cit]K[dP]P); lactam 4-11)	0%	–	–	0.383 h	1.43 h	46000 nM	4.2 nM
